Test results from US6127333A, “Conjugates useful in the treatment of prostate cancer” (priority 1998, dated 2000).

Biological target: T1, York PSA (enzymatically active free PSA) (Homo sapiens, UniProt P07288)
T1 construct: 50% cleavage of the noted oligopeptide-cytotoxic agent conjugates with enzymatically active free PSA
Assay: Recognition/cleavage of oligopeptide-vinca drug conjugates by free PSA
Type: biochemical
Details: PSA digestion buffer pH7.4, conjugate to PSA molar ratio 100 to 1, HPLC; when n > 1 value is an average
Procedure: Alternatively, the PSA digestion buffer utilized is 50 mM tris(hydroxymethyl)aminomethane pH7.4, 140 mM NaCl. The reaction is quenched after various reaction times by the addition of trifluoroacetic acid (TFA) to a final 1% (volume/volume). Alternatively the reaction is quenched with 10 mM ZnCl2. The quenched reaction was analyzed by HPLC on a reversed-phase C18 column using an aqueous 0.1%TFA/acetonitrile gradient. […] Unless otherwise indicated, the acetate salt of the conjugate was tested.

T1 sequence (P07288 25-261): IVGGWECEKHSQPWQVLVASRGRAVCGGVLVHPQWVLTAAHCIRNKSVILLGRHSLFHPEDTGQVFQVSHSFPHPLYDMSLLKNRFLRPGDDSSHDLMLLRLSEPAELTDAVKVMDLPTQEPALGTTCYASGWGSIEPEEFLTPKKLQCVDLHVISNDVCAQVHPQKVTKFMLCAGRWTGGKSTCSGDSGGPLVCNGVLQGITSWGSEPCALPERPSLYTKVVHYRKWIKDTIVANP

Row | Substance | Time to 50% Substrate Cleavage by York PSA [min]
1 | 4-des-Acetylvinblastine-23-(N-Acetyl-Ser-Ser-Ser-Chg-Gln-Ser-Val-BDAM) amide acetate salt [Ac-SSSChgQSV-1,4-BDAM-(dAc)-VIN] | 10
2 | 4-des-Acetylvinblastine-23-(N-methoxy-diethyleneoxyacetyl-4-trans-L-Hyp-Ser-Ser-Chg-Gln-Ser-Val-BDAM) amide acetate salt | 14
